ChEMBL document CHEMBL1158308, “Three new adjacent bis-tetrahydrofuran acetogenins with four hydroxyl groups from Asimina triloba” (J Nat Prod, 1996)
Values after ≈ are worked out from the molar mass of the structure shown.

Assays:
MCF7 = assay: Cytotoxicity against human MCF7 cells after 7 days by MTT assay; assay type: functional; details: for EC50: Homo sapiens, MCF7, 168 h, read-out: ED50 (the source's name)
MIA PaCa-2 = assay: Cytotoxicity against human MIAPaCa2 cells after 7 days by MTT assay; assay type: functional; details: MIA PaCa-2, 168 h, read-out: ED50 (the source's name)
A498 = assay: Cytotoxicity against human A498 cells after 7 days by MTT assay; assay type: functional; details: A498, 168 h, read-out: ED50 (the source's name)
A549 = assay: Cytotoxicity against human A549 cells after 7 days by MTT assay; assay type: functional; details: for EC50: Homo sapiens, A549, 168 h, read-out: ED50 (the source's name)
Artemia salina = assay: Toxicity to Artemia salina; assay type: organism-based; details: in vivo
HT-29 = assay: Cytotoxicity against human HT29 cells after 7 days by MTT assay; assay type: functional; details: for EC50: Homo sapiens, HT-29, 168 h, read-out: ED50 (the source's name)
PC-3 = assay: Cytotoxicity against human PC3 cells after 7 days by MTT assay; assay type: functional; details: PC-3, 168 h, read-out: ED50 (the source's name)

Structure (SMILES) | EC50 (MCF7) | EC50 (MIA PaCa-2) | EC50 (A498) | EC50 (A549) | LC50 (Artemia salina) | EC50 (HT-29) | EC50 (PC-3) | ED50 (MCF7) | ED50 (A549) | ED50 (HT-29)
CCCCCCCCCC[C@@H](O)[C@H]1CC[C@H]([C@H]2CC[C@H]([C@H](O)CCCC[C@H](O)CCCCC[C@@H](O)CC3=C[C@H](C)OC3=O)O2)O1 | 0.327 µg/mL (≈ 0.512 µM) | > 1 µg/mL | > 1 µg/mL | 0.673 µg/mL (≈ 1.05 µM) | 4.3 ×10⁻¹ ppm | 0.00758 µg/mL (≈ 0.0119 µM) | 0.527 µg/mL (≈ 0.825 µM) | – | – | –
CCCCCCCCCC[C@@H](O)[C@H]1CC[C@@H]([C@H]2CC[C@H]([C@H](O)CCCC[C@H](O)CCCCC[C@@H](O)CC3=C[C@H](C)OC3=O)O2)O1 | – | 0.196 µg/mL (≈ 0.307 µM) | 0.01 µg/mL (≈ 0.0157 µM) | – | 2.6 ×10⁻¹ ppm | 1.39 µg/mL (≈ 2.18 µM) | 0.378 µg/mL (≈ 0.592 µM) | 1.88 ×10⁻⁸ ug/ml | 1 ×10⁻⁸ ug/ml | –
CCCCCCCCCCC(O)C1CCC(C2CCC(C(O)CCCCCCCC[C@H](O)CC3=C[C@@H](C)OC3=O)O2)O1 (stereo partly drawn) [ASIMICIN] | 0.852 µg/mL (≈ 1.43 µM) | – | – | – | – | – | – | – | 8.43 ×10⁻⁴ ug/ml | <1 ×10⁻¹² ug/ml
CCCCCCCCCC[C@@H](O)[C@H]1CC[C@H]([C@H]2CC[C@H]([C@H](O)CCCCCCCCCC[C@@H](O)CC3=C[C@H](C)OC3=O)O2)O1 [ASIMICIN] | – | – | – | – | 2.7 ×10⁻² ppm | – | – | – | – | –
CCCCCCCCCC[C@@H](O)[C@H]1CC[C@H]([C@H]2CC[C@H]([C@H](O)CCCC[C@H](O)CCCCCCCC3=C[C@H](C)OC3=O)O2)O1 [ASIMIN] | – | – | – | – | 4.6 ×10⁻³ ppm | – | – | 9.57 ×10⁻⁹ ug/ml | 7.99 ×10⁻⁹ ug/ml | <1 ×10⁻¹² ug/ml
CCCCCCCCCC[C@H](O)[C@H]1CC[C@H]([C@H]2CC[C@H]([C@H](O)CCCCCCCCCCCCC3=C[C@H](C)OC3=O)O2)O1 [BULLANIN] | – | – | – | – | 6 ×10⁻³ ppm | – | – | 3.22 ×10⁻¹⁴ ug/ml | 3.11 ×10⁻¹⁴ ug/ml | 4.77 ×10⁻¹⁴ ug/ml
CC[C@H](O)[C@H](O)CCCCCC[C@H](O)[C@H]1CC[C@H]([C@H]2CC[C@H]([C@H](O)CCCCCCCCCCCCC3=C[C@H](C)OC3=O)O2)O1 [BULLATETROCIN] | 0.497 µg/mL (≈ 0.778 µM) | > 1 µg/mL | > 1 µg/mL | 0.352 µg/mL (≈ 0.551 µM) | 3.1 ×10⁻¹ ppm | – | > 1 µg/mL | – | – | 3.32 ×10⁻⁵ ug/ml
COc1cccc2c1C(=O)c1c(O)c3c(c(O)c1C2=O)C[C@@](O)(C(=O)CO)C[C@@H]3O[C@H]1C[C@H](N)[C@H](O)[C@H](C)O1 [DOXORUBICIN] | 0.17 µg/mL (≈ 0.313 µM) | 0.00243 µg/mL (≈ 0.00447 µM) | 0.00178 µg/mL (≈ 0.00327 µM) | 0.00178 µg/mL (≈ 0.00327 µM) | 8 ×10⁻² ppm | 0.00428 µg/mL (≈ 0.00787 µM) | 0.0189 µg/mL (≈ 0.0348 µM) | – | – | –
CCCCCCCCCC[C@@H](O)[C@H]1CC[C@@H]([C@H]2CC[C@H]([C@H](O)CCCCCCCCCC[C@@H](O)CC3=C[C@H](C)OC3=O)O2)O1 [TRILOBACIN] | 0.339 µg/mL (≈ 0.544 µM) | – | – | – | 8.7 ×10⁻³ ppm | – | – | – | 8.02 ×10⁻⁴ ug/ml | <1 ×10⁻¹² ug/ml
CCCCCCCCCC[C@@H](O)[C@H]1CC[C@@H]([C@H]2CC[C@H]([C@H](O)CCC[C@H](O)CCCCCCCC3=C[C@H](C)OC3=O)O2)O1 [TRILOBIN] | – | – | – | – | 9.7 ×10⁻³ ppm | – | – | 2.95 ×10⁻¹² ug/ml | 5.71 ×10⁻¹² ug/ml | 2.2 ×10⁻⁸ ug/ml
